The subject of one data set is COS-7 chloride channel. The data set is described as follows: Selectivity patch clamp, native chloride channels in COS-7 cells. The format is cell-based, African green monkey. The settings on record: native chloride channel of COS-7 cells. The method, then: Electrophysiological experiments were carried out in the whole-cell configuration of the patch-clamp technique using an EPC-9 amplifier (HEKA Elektronik, Lambrecht Germany) interfaced to a computer running acquisition and analysis software (Pulse and Pulsfit; HEKA Elektronik). Pipettes were pulled from soft glass capillaries, coated with Sylgard (Dow-Corning, Midland, Mich.), and fire polished to resistances of 2.0–4.5 MΩ measured in the bath. COS-7 cells were trypsinized and plated on glass coverslips 3 h before measurement. […] To prevent activation of the native chloride channels in COS-7 cells an aspartate Ringer solution was used as an external solution (160 mM Na^+ aspartate, 4.5 mM KCl, 2 mM CaCl2, 1 mM MgCl2, 5 mM HEPES, adjusted to pH 7.4 with NaOH, with an osmolarity of 290–310 mosM). 200 ms voltage ramps from −120 mV to 40 mV every 10 s were used. The holding potential in all experiments was −80 mV. Series resistance compensation was not employed. The reduction of slope conductance at −80 mV was used to determine the Kd-value by fitting the values to the Hill equation with a Hill coefficient of unity.
Recordings from the Jurkat SKCa channel were made in K^+ aspartate Ringer (Na^+ was replaced by K^+) with the same internal pipette solution. […]
Background: Patch clamp records ionic current or voltage across a cell membrane.

In the next data set the target is CYP3A4 (Homo sapiens, UniProt P08684). The data set is described as follows: in vitro. The settings on record: human. As to the method:
The test substances shown in Table 8 were evaluated for their inhibitory effect on the catalytic activity of human cytochrome P450 enzyme. Cytochrome P450 3A4 (CYP3A4) is involved in many drug-drug interactions and in many other pathways in the body including the catabolism of steroids and xenobiotics. Inhibition of this enzyme was measured in 96 well plates with 7-benzyloxy-4-trifluoro-methylcoumarin (BFC) as the substrate and cDNA-derived enzymes in microsomes prepared from baculovirus-infected insect cells.
The inhibition study consisted of the determination of inhibition by the test substance on CYP3A4 catalytic activity. […] The compounds were prepared as 10 mM stock solutions in acetonitrile. Metabolism of the model substrate was assayed by the production of 7-hydroxy-4-trifluoromethylcoumarin metabolite. The metabolite was detected by fluorescence.
Table 10 below provides a list of the name of enzymes examined, the catalog number of the microsomes used as a source of the enzyme, the concentration of the model substrate used, the amount of enzyme used, the final buffer concentration, and the positive control compound.
Assays were conducted in 96 well microtiter plates. The BFC substrate was initially prepared in acetonitrile. […] Six wells were used for one test. […] For the positive controls, 12 wells in a row were used for one test. The positive control inhibitor/enzyme combination was examined in duplicate rows. Wells 1 to 8 contained serial 1:3 dilutions of the inhibitors. The highest inhibitor concentration were as described in the table above. Wells 9 and 10 contained no inhibitor and wells 11 and 12 were blanks for background fluorescence (stop solution added before the enzyme).
After buffer, cofactors and inhibitor addition, the plates were pre-warmed to 37° C. Incubations were initiated by the addition of pre-warmed enzyme and substrate. The final cofactor concentrations were 1.3 mM NADP, 3.3 mM glucose-6-phosphate and 0.4 U/ml glucose-6-phosphate dehydrogenase. The final incubation volume was 0.2 ml. Incubations were carried out for 30 minutes [CYP3A4 (BFC)] and stopped by the addition of 0.075 ml of 80% acetonitrile-20% 0.5M Tris. Fluorescence per well was measured using a BMG FLUOstar fluorescence plate reader. The BFC metabolite 7-hydroxy-4-trifluoromethyl-coumarin was measured using an excitation wavelength of 410 nm and emission wavelength of 538 nm.

A short description of data set [1]: Hydrolytic stability by HPLC. The note with it: pH 5.0, 37° C. As to the method: A Waters 590 liquid chromatograph with a Waters 746 integrator and a Waters 486 UVN is detector, and a 25 cm Lichrospher RP18 column (5-μM particle size) was used. The mobile phase consisted of K2HPO4 25 mM, KH2PO4 30 mM, methanol at 262:13:725. The chromatographic separation was performed at 20° C. with a flow rate of 1.0 ml/min, the absorbance of the elluent was monitored at 210 nm.
Hydrolysis profiles (10 μM compound with 20% acetonitrile) were carried out in Soerensen phosphate buffer (pH 7.4 and pH 5.0) in a total volume of 10 ml. 100 μl samples were collected 0, 1, 2, 3, 4, 5, 24, 48 and 72 hours after incubation, with shaking, in a waterbath at 37° C. and manually injected into the HPLC over Rheodyne 7125 system. For profiles at pH 1.0 artificial stomach fluid (DAB 9), containing 2 g NaCl, 3,2 g pepsin and 80 ml 1 M HCL in 1.0 L of water was used. After 0, 1 and 2 hours 400 μl of sample were collected and extracted three times with 500 μl of ethyl ether by vortexing. The combined extracts were than evaporated to dryness by passing nitrogen through the solution. The residue was than dissolved in 400 μl of mobile phase of which […] were injected in the HPLC.

Chain of CYP3A4 (P08684 whole entry): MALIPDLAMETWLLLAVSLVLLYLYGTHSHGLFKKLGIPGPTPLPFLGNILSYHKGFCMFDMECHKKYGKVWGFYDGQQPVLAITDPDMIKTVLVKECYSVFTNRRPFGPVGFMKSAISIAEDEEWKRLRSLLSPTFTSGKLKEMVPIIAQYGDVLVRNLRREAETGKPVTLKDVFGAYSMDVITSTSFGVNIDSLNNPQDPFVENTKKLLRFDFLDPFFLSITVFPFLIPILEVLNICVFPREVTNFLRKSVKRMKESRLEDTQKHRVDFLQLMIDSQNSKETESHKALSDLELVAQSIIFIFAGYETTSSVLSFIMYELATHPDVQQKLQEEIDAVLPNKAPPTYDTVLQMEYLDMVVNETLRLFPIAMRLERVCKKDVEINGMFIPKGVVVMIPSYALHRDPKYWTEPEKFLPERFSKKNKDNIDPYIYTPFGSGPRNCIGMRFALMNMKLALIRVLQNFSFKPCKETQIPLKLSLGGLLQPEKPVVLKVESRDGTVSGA

As to `Clc1ccccc1C(c1ccccc1)(c1ccccc1)n1ccnc1` [Clotrimazole, reference compound], in the data set with COS-7 chloride channel, the “Block of COS-7 (Cl)” value is “no effect at 10 μM (n =”. Also, at CYP3A4, the inhibition at 30 min, 0.1 μM was found to be 99%. Also, the “hydrolysis: % T3 formed” value is given as 22% in data set [1] (after 48 h) and 35% in data set [1] (after 72 h).

What is called inhibition is the share of the control response that was lost under treatment.

Source of the values: US7235577B1 (priority 2000, dated 2007).
